Reference: patent US8618289B2 (Ambit Biosciences Corporation, priority 2008, dated 2013)
Read-outs that look alike come from different tables or passages of the source.

Key:
[1] = test system: 290 distinct kinases tested excluding mutant variants (321 in the larger panel)
Procedure: Competition binding assays used herein were developed, validated and performed as described in Fabian et al., Nature Biotechnology 2005, 23, 329-336. […] The liganded beads were blocked with excess biotin and washed with blocking buffer (SeaBlock (Pierce), 1% BSA, 0.05% Tween 20, 1 mM DTT) to remove unbound ligand and to reduce non-specific binding. […] Test compounds were prepared as 100× stocks in DMSO and rapidly diluted into the aqueous environment. DMSO was added to control assays lacking a test compound. Primary screen interactions were performed in polypropylene 384-well plates in a final volume of 34 μt, while Kd determinations were performed in polystyrene 96-well plates in a final volume of 135 pt. […] The kinase concentration in the eluates was measured by quantitative PCR. Each kinase was tested individually against each compound. Kds were determined using eleven serial threefold dilutions. A selectivity score, which is a quantitative measure of selectivity of a compound against a panel of enzymes, may be calculated for a compound by dividing the number of enzymes for which a compound meets a set criteria, (for example, a binding constant of 100 nM or less), by the total number of enzymes tested. […] (Note, for those compounds tested in a larger kinase panel, as indicated by an asterisk (*) next to the S35 score, the divisor is 321 (i.e. the larger panel contains 321 distinct kinases, excluding mutant variants.)).

[2] = test system: MEK1 phosphorylation in the A375 human melanoma cell line; assay: cells; details: A-375, read-out: pMEK IC50
A375 cells = assay: cells; details: Homo sapiens, A-375, read-out: A375 Viability EC50
RAF kinases [3] = target: T1, RAF kinases (Homo sapiens, UniProt P04049); assay: biochemical
T1 sequence (P04049 whole entry): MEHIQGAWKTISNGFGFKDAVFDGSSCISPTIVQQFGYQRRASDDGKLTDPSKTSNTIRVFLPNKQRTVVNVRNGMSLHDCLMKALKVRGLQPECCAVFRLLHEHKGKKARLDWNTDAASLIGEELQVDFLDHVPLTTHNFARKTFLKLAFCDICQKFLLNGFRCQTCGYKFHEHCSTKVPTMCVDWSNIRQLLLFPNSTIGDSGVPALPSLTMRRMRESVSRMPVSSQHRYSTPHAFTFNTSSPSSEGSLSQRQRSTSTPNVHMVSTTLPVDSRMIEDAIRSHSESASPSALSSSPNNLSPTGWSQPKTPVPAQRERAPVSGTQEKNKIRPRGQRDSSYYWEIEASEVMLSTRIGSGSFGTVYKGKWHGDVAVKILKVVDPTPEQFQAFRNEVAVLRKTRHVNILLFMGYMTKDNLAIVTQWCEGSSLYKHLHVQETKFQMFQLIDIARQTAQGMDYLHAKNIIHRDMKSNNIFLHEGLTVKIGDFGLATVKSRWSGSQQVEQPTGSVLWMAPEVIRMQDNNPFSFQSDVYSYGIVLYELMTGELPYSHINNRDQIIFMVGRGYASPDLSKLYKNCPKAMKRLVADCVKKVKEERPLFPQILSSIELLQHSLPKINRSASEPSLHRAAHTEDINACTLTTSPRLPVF

RAF kinases [4] = target: RAF kinases (Homo sapiens, UniProt P15056); assay: biochemical
Chain of RAF kinases (Homo sapiens, UniProt P15056) (P15056 whole entry): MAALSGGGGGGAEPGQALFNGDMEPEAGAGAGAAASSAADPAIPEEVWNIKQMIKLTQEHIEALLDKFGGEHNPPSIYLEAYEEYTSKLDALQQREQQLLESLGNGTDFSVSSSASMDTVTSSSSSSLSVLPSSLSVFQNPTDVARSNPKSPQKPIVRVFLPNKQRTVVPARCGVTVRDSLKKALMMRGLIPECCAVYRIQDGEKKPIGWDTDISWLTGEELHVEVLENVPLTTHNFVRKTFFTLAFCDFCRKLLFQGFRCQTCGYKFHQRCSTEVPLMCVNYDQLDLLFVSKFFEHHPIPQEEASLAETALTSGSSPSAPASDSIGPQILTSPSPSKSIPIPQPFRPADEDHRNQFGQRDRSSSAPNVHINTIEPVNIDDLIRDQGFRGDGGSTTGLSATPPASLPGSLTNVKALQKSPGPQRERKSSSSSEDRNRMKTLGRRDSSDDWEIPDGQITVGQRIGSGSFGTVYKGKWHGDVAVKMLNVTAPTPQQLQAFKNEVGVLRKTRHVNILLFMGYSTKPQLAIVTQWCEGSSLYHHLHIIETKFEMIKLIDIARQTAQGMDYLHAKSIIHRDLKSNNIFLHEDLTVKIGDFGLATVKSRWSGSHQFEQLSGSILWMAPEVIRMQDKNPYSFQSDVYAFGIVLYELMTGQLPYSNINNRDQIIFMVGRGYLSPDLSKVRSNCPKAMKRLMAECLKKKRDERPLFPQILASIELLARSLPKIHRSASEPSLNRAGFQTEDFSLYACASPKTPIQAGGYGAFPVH

RAF kinases [5] = target: T2, RAF kinases (Homo sapiens, UniProt P15056, V600E); assay: biochemical
T2 sequence (P15056 whole entry V600E): as the sequence (P15056 whole entry) above, with V600E counted along it

RAF kinases [6] = target: T1, RAF kinases; details: read-out: RAF1 Kd; RAF1
RAF kinases [7] = target: T2, RAF kinases; details: read-out: BRAF V600E Kd; BRAF V600E
[8] = no asterisk: panel of 290 distinct kinases

SMILES	S35 [1, 8]	IC50 [2] [µM]	EC50 (A375 cells) [µM]	Kd (RAF kinases [3]) [µM]	Kd (RAF kinases [4]) [µM]	Kd (RAF kinases [5]) [µM]	S35 ([1]; asterisk: panel of 321 distinct kinases)	Kd (RAF kinases [6]) [µM]	Kd (RAF kinases [7]) [µM]
COc1cc2c(Sc3cccc(NC(=O)Nc4cc(C(C)(C)C)on4)c3)ncnc2cc1OCCN1CCN(CCO)CC1 [Ex 84, 1-(5-tert-butylisoxazol-3-yl)-3-(3-(7-(2-(4-(2-hydroxyethyl)piperazin-1-yl)ethoxy)-6-methoxyquinazolin-4-ylthio)phenyl)urea]	D (D > 0.40)	< 0.25	> 1	0.25 to 0.5	0.25 to 0.5	< 0.25	–	–	–
COc1cc2ncnc(Sc3cccc(NC(=O)Nc4cc(C(F)(F)F)nn4-c4ccc(C)cc4)c3)c2cc1OC [Ex 199, 1-[3-(6,7-dimethoxyquinazolin-4-ylthio)phenyl]-3-[1-p-tolyl-3-(trifluoromethyl)-1H-pyrazol-5-yl]urea]	–	< 0.25	> 1	> 1	> 1	> 1	D* (D > 0.40)	–	–
COc1cc2ncnc(Oc3cccc(NC(=O)Nc4cc(C(C)(C)CO)no4)c3)c2cc1OC [Ex 255, 1-(3-(6,7-dimethoxyquinazolin-4-yloxy)phenyl)-3-(3-(1-hydroxy-2-methylpropan-2-yl)isoxazol-5-yl)urea]	C (0.20 < C ≦ 0.40)	> 1	> 1	0.25 to 0.5	0.25 to 0.5	< 0.25	–	–	–
COc1cc2ncnc(Oc3cccc(NC(=O)Nc4cc(C(C)(C)C(F)(F)F)nn4-c4ccccc4)c3)c2cc1OC [Ex 306, 1-(3-(6,7-dimethoxyquinazolin-4-yloxy)phenyl)-3-(1-phenyl-3-(1,1,1-trifluoro-2-methylpropan-2-yl)-1H-pyrazol-5-yl)urea]	D (D > 0.40)	< 0.25	–	> 1	> 1	0.25 to 0.5	–	–	–
COc1cc2ncnc(Oc3cccc(NC(=O)Nc4cc(C(C)(F)F)nn4-c4cncc(F)c4)c3)c2cc1OC [Ex 316, 1-(3-(1,1-difluoroethyl)-1-(5-fluoropyridin-3-yl)-1H-pyrazol-5-yl)-3-(3-(6,7-dimethoxyquinazolin-4-yloxy)phenyl)urea]	C (0.20 < C ≦ 0.40)	0.25 to 0.5	0.5 to 1	–	0.25 to 0.5	–	–	< 0.25	< 0.25
COc1cc2ncnc(Sc3cccc(NC(=O)Nc4cc(C(C)(C)C)nn4-c4ccc(C#N)cc4)c3)c2cc1OC [Ex 329, 1-(3-tert-butyl-1-(4-cyanophenyl)-1H-pyrazol-5-yl)-3-(3-(6,7-dimethoxyquinazolin-4-ylthio)phenyl)urea]	D (D > 0.40)	< 0.25	–	0.5 to 1	0.25 to 0.5	0.25 to 0.5	–	–	–
COc1cc2ncnc(Sc3cccc(NC(=O)Nc4cc(C(C)(C)C)nn4C4CCCCC4)c3)c2cc1OC [Ex 331, 1-(3-tert-butyl-1-cyclohexyl-1H-pyrazol-5-yl)-3-(3-(6,7-dimethoxyquinazolin-4-ylthio)phenyl)urea]	B (0.10 < B ≦ 0.20)	< 0.25	> 1	0.5 to 1	0.5 to 1	0.25 to 0.5	–	–	–
COc1cc2ncnc(Sc3cccc(NC(=O)Nc4cc(C(F)(F)F)nn4-c4cccc(C)c4)c3)c2cc1OC [Ex 339, 1-(3-(6,7-dimethoxyquinazolin-4-ylthio)phenyl)-3-(1-m-tolyl-3-(trifluoromethyl)-1H-pyrazol-5-yl)urea]	C (0.20 < C ≦ 0.40)	< 0.25	–	0.5 to 1	> 1	0.25 to 0.5	–	–	–
COc1cc2ncnc(Oc3cccc(NC(=O)Nc4cc(C5(C(F)(F)F)CC5)nn4-c4ccc(C)cc4)c3)c2cc1OC [Ex 346, 1-(3-(6,7-dimethoxyquinazolin-4-yloxy)phenyl)-3-(1-p-tolyl-3-(1-(trifluoromethyl)cyclopropyl)-1H-pyrazol-5-yl)urea]	D (D > 0.40)	< 0.25	–	> 1	> 1	< 0.25	–	–	–
